In paper PMC4955201, “α-Glucosidase inhibitors from the bark of Mangifera mekongensis” (Chemistry Central Journal, 2016):
Where two headings read alike, the source gives them in different places.

Target: T1, α-Glucosidase (EC 3.2.1.20) from Saccharomyces cerevisiae (Saccharomyces cerevisiae, UniProt P53341)
T1 construct: purchased Sigma Chemical Co. (St. Louis, MO, USA)
Test: biochemical
Assay type: biochemical
Details: for inhibition at 50 µM / inhibition at 100 µM / inhibition at 250 µM / inhibition at 1 µM / inhibition at 2.5 µM / inhibition at 5 µM / inhibition at 10 µM / inhibition at 25 µM: read-out: Inhibition (I %); for α-glucosidase inhibitory activity (in words): tested at 1 to 250 µM
Procedure: α-Glucosidase (EC 3.2.1.20) from Saccharomyces cerevisiae (750 UN) and p-nitrophenyl-α-D-glucopyranoside were obtained from Sigma Chemical Co. (St. Louis, MO, USA). […] Silica gel 60, 40–63 µm (230–400 mesh ASTM), for column chromatography was purchased from Scharlau (Barcelona, Spain). Analytical and preparative TLC were carried out on precoated Kiesegel 60F254 or RP-18F254 plates (0.25 or 0.5 mm thickness) (Merck, Germany). Other chemicals were of the highest grade available.
The inhibitory activity of α-glucosidase was determined according to the modified method of Kim et al.. 3 mM p-nitrophenyl-α-D-glucopyranoside (25 μL) and 0.2 U/mL α-glucosidase (25 μL) in 0.01 M phosphate buffer (pH = 7.0) were added to the sample solution (625 μL) to start the reaction. Each reaction was carried out at 37 °C for 30 min and stopped by adding 0.1 M Na2CO3 (375 μL). […] One unit of α-glucosidase activity was defined as amount of enzyme liberating p-nitrophenol ([…]) per min.

[1] = isolated compounds, pH 7.0, 37 °C, 30 min, read-out: α-Glucosidase inhibitory activity IC50

T1 sequence (P53341 whole entry): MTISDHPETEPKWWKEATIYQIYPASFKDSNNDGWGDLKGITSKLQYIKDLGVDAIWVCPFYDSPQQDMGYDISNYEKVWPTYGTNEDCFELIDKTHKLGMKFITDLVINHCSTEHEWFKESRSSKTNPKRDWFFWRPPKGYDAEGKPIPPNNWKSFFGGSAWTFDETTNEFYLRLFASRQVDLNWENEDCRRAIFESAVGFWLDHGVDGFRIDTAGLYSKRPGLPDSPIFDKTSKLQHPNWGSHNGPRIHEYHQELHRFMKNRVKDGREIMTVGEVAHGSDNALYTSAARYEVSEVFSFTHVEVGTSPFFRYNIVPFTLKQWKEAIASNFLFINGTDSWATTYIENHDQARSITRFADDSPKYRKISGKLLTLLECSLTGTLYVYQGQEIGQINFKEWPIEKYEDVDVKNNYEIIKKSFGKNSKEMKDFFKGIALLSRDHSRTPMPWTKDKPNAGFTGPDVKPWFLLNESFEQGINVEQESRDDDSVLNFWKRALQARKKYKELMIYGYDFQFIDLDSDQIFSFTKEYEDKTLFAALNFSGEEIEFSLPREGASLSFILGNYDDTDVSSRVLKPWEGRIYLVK

Structure (SMILES) | IC50 | inhibition at 50 µM | inhibition at 100 µM | inhibition at 250 µM | IC50 [1] | α-glucosidase inhibitory activity (in words) | inhibition at 1 µM | inhibition at 2.5 µM | inhibition at 5 µM | inhibition at 10 µM | inhibition at 25 µM
CC(=CCCC(C)C1CCC2(C)C3CCC4C(C)(C)C(O)CCC45CC35CCC12C)C(=O)O (stereo not shown) [Compound 9, ambolic acid] | 112 µM | 15.9 ± 1.1% | 32.2 ± 1% | 95.9 ± 1% | – | – | – | – | – | – | –
CC[C@H](CC[C@@H](C)[C@H]1CC[C@H]2[C@@H]3CC=C4C[C@@H](O)CC[C@]4(C)[C@H]3CC[C@]12C)C(C)C [Compound 3, β-sitosterol] | – | – | – | – | > 250 µM | inactive | – | – | – | – | –
CCC(CCC(C)C1CCC2C3CC=C4CC(OC(=O)CCCCCCCC(=O)O)CCC4(C)C3CCC12C)C(C)C (stereo not drawn) [Compound 2, 3β-(8-carboxyoctanoyl)sitosterol] | – | – | – | – | 2.5 µM | – | 15.2 ± 1.2% | 50.8 ± 1.1% | 82.6 ± 1.4% | 93.1 ± 1.2% | –
C[C@H]1O[C@H](O[C@H]2[C@H](O)[C@@H](O)[C@@H](O[C@H]3[C@H](O)[C@@H](O)C(O)O[C@@H]3CO)O[C@@H]2CO)[C@H](O)[C@@H](O)[C@@H]1N[C@H]1C=C(CO)[C@@H](O)[C@H](O)[C@H]1O (stereo partly shown) [Acarbose, reference compound] | – | 9.8 ± 1.1% | 21.2 ± 2.2% | 59.8 ± 1.2% | – | – | – | – | – | – | –
CC[C@H](CC[C@@H](C)[C@H]1CC[C@H]2[C@@H]3CC(=O)C4CC(=O)CC[C@]4(C)[C@H]3CC[C@]12C)C(C)C (stereo partly shown) [Compound 4, stigmastane-3,6-dione] | – | – | – | – | > 250 µM | inactive | – | – | – | – | –
CCCCCCCCCCCCCCCCCCC(=O)OC1CCC2(C)C(=CCC3C2CCC2(C)C(C(C)CCC(CC)C(C)C)CCC32)C1 (stereo not drawn) [Compound 1, 3β-nonadecanoylsitosterol] | – | 67.7 ± 1.4% | 91.8 ± 1.1% | – | 27.7 µM | – | – | – | – | 24.4 ± 1.8% | 38.6 ± 1.2%
CCCCCCCCCCCCCCCC(=O)OC[C@H]1O[C@@H](O[C@H]2CC[C@@]3(C)C(=CC[C@H]4[C@@H]5CC[C@H]([C@H](C)CC[C@@H](CC)C(C)C)[C@@]5(C)CC[C@@H]43)C2)[C@H](O)[C@@H](O)[C@@H]1O [Compound 5, β-sitosteryl-3-O-β-D-glucopyranosyl-6′-O-palmitate] | – | 75.9 ± 2.6% | 90.9 ± 1.4% | – | 21.1 µM | – | – | – | – | 32.1 ± 2.3% | 49.7 ± 3.1%
CC(=CCCC(C)C1CCC2(C)C3CCC4C(C)(C)C(=O)CCC45CC35CCC12C)C(=O)O (stereo not shown) [Compound 8, ambonic acid] | 1.2 µM | – | – | – | – | – | 46.5 ± 1.1% | 62.5 ± 1.1% | 78.4 ± 1.6% | 87.5 ± 1% | –
